One assay addresses T1, ACAT (Rattus norvegicus, UniProt Q7TQM4).
T1 construct: Rat liver microsomes are used as the source of ACAT; from tissue; host or cells: rat liver microsomes
T1 sequence (Q7TQM4 1-524): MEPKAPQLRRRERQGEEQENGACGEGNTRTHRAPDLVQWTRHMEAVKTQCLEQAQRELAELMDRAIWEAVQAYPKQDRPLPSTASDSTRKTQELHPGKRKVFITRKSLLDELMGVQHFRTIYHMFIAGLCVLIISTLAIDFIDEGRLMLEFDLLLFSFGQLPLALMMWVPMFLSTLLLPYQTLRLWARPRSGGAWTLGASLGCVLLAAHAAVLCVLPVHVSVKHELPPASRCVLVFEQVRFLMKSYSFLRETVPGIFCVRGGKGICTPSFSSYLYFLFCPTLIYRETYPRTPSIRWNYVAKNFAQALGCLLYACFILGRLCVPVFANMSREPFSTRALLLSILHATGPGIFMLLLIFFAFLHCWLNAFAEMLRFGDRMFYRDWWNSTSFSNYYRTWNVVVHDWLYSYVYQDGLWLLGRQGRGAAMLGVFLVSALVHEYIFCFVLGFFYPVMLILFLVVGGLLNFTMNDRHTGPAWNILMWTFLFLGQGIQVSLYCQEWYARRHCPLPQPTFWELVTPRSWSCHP
The experiment in a line: ACAT Assay (in vitro). The following applies: for inhibition at 10 µM: Conc. 10 µM. The assay is classed as biochemical.

Another assay has as its system Hyperlipidemic Hamster. The experiment in a line: In Vivo Assay of Hypolipidemic Agents Using the Hyperlipidemic Hamster. The following applies: Mesocricetus auratus, po, 168 h, 7 days, percent change versus control, negative = lowering; for change in vivo at 50 mg/kg: 50 mg/kg once daily oral; for change in vivo at 100 mg/kg: 100 mg/kg once daily oral. The method, boiled down: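 Hamsters, six per group, were fed chow with 0.5% cholesterol for seven days and given compound once daily by oral gavage in corn oil; controls received corn oil alone. Plasma (EDTA) and liver lipids were measured at sacrifice. Values are percent change versus control, so negative means lowering.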

Where [1] appears, read: negative = apparent stimulation, read-out: ACAT (in vitro) % Inhib.
[2] abbreviates: read-out: % Reduction (in vivo) Cholest. Esters.
The mark [3] stands for this setting: read-out: % Reduction (in vivo) Serum Cholest.
The mark [4] stands for this setting: rat liver microsomes, read-out: ACAT (in vitro) IC50.

SMILES strings stand for the structures. Read-outs that look alike come from different tables or passages of the source.

With `CC[C@@H]1C(=O)N(c2ccc(OC)cc2)[C@H]1C=Cc1ccccc1` (relative stereo) [Example 1AG], the inhibition at 10 µM on ACAT (setting [1]) is -3%. Moreover, the change in vivo at 50 mg/kg with Hyperlipidemic Hamster (setting [2]) is -29%; in the assay on Hyperlipidemic Hamster (setting [3]), -16%.

As to `CC[C@@H]1C(=O)N(c2ccc(OC)cc2)[C@H]1c1ccc([N+](=O)[O-])cc1` (relative stereo) [Example 1AJ], the inhibition at 10 µM on ACAT (setting [1]) was -17%. Further, the change in vivo at 50 mg/kg with Hyperlipidemic Hamster (setting [2]) and in the assay with Hyperlipidemic Hamster (setting [3]) was 0% each time.

As to `CC[C@H]1C(=O)N(c2ccc(OC)cc2)[C@H]1c1ccc([N+](=O)[O-])cc1` (relative stereo) [Example 1AK], on ACAT (setting [1]), the inhibition at 10 µM was -33%.

For `CC[C@@H]1C(=O)N(c2ccc(OC)cc2)[C@@H]1c1ccc(OC)cc1` (relative stereo) [Example 1AL], the inhibition at 10 µM on ACAT (setting [1]) was -43%. Further, the change in vivo at 50 mg/kg in the assay with Hyperlipidemic Hamster (setting [2]) and with Hyperlipidemic Hamster (setting [3]) was 0% each time.

For `COc1ccc(N2C(=O)[C@H](CCCc3ccccc3)[C@H]2c2ccncc2)cc1` (relative stereo) [Example 1AR], on ACAT (setting [1]), the inhibition at 10 µM was -41%. The change in vivo at 50 mg/kg with Hyperlipidemic Hamster (setting [2]) was -25%; in the assay on Hyperlipidemic Hamster (setting [3]), -22%.

What is called IC50 is the concentration that inhibits the measured activity by half. On to `COc1ccc(N2C(=O)[C@H](CCCc3ccccc3)[C@H]2c2ccc(CO[Si](C)(C)C(C)(C)C)cc2)cc1` (relative stereo) [Example 1AS], for which the IC50 on ACAT is 1 µM. For the same molecule, the inhibition at 10 µM on ACAT (setting [1]) came out at 83%. The change in vivo at 50 mg/kg in the assay on Hyperlipidemic Hamster (setting [2]) is -19%; with Hyperlipidemic Hamster (setting [3]) it was 0%.

In the case of `COc1ccc(N2C(=O)[C@H](CCCc3ccccc3)[C@@H]2c2ccc(CO[Si](C)(C)C(C)(C)C)cc2)cc1` (relative stereo) [Example 1AT], on ACAT, it took 5 µM to reach half-maximal inhibition (IC50). Moreover, on ACAT (setting [1]), the inhibition at 10 µM was determined as 70%. Also, the change in vivo at 50 mg/kg in the assay on Hyperlipidemic Hamster (setting [2]) is -28%; in the assay with Hyperlipidemic Hamster (setting [3]) it was 0%.

On to `COc1ccc(N2C(=O)[C@H](CCCc3ccccc3)[C@@H]2c2ccc(SC)cc2)cc1` (relative stereo) [Example 1AU], for which the inhibition at 10 µM on ACAT (setting [1]) amounted to 44%. Further, the change in vivo at 50 mg/kg in the assay with Hyperlipidemic Hamster (setting [2]) is -21%; with Hyperlipidemic Hamster (setting [3]) it was 0%.

As for `COc1ccc(N2C(=O)[C@](C(=O)Cc3ccccc3)(c3ccccc3)[C@@H]2c2ccccc2)cc1` (relative stereo) [Example 1A], the inhibition at 25 µM at ACAT (Conc. 25 µM, negative = apparent stimulation, read-out: ACAT (in vitro) % Inhib.) was 83%. In addition, the values for the change in vivo at 100 mg/kg in the assay on Hyperlipidemic Hamster (setting [2]) and with Hyperlipidemic Hamster (setting [3]) were -26% and -10%, respectively.

`COc1ccc(N2C(=O)[C@H](CCCc3ccccc3)[C@@H]2c2ccc(OC)c(OC)c2)cc1` (relative stereo) [Example 1BB]: the inhibition at 10 µM at ACAT (setting [1]) was -16%. Moreover, the change in vivo at 50 mg/kg with Hyperlipidemic Hamster (setting [2]) and in the assay with Hyperlipidemic Hamster (setting [3]) was 0% in each case.

Consider `COc1ccc(N2C(=O)[C@H](CCCc3ccccc3)[C@@H]2c2ccco2)cc1` (relative stereo) [Example 1BC], for which, at ACAT (setting [1]), the inhibition at 10 µM is -2%. For the same molecule, the change in vivo at 50 mg/kg in the assay with Hyperlipidemic Hamster (setting [2]) and with Hyperlipidemic Hamster (setting [3]) was 0% each time.

`COc1ccc(N2C(=O)[C@H](CCCc3ccccc3)[C@H]2c2ccco2)cc1` (relative stereo) [Example 1BD]: the inhibition at 10 µM at ACAT (setting [1]) turned out to be 17%. Further, the change in vivo at 50 mg/kg is -25% with Hyperlipidemic Hamster (setting [2]) and 0% in the assay on Hyperlipidemic Hamster (setting [3]).

As for `COc1ccc(N2C(=O)[C@H](CCCc3ccccc3)[C@@H]2c2ccoc2)cc1` (relative stereo) [Example 1BE], at ACAT (setting [1]), the inhibition at 10 µM turned out to be 30%. Further, the change in vivo at 50 mg/kg is -21% with Hyperlipidemic Hamster (setting [2]) and -10% with Hyperlipidemic Hamster (setting [3]).

As to `COc1ccc(N2C(=O)[C@H](CCCc3ccccc3)[C@H]2c2ccoc2)cc1` (relative stereo) [Example 1BF], the inhibition at 10 µM on ACAT (setting [1]) is -17%. Besides, the values for the change in vivo at 50 mg/kg in the assay with Hyperlipidemic Hamster (setting [2]) and in the assay on Hyperlipidemic Hamster (setting [3]) were -23% and 0%, respectively.

In the case of `COc1ccc(N2C(=O)[C@H](CCCc3ccccc3)[C@H]2c2ccc(C(F)(F)F)cc2)cc1` (relative stereo) [Example 1BG], at ACAT (setting [1]), the inhibition at 10 µM was determined as 3%. The change in vivo at 50 mg/kg in the assay on Hyperlipidemic Hamster (setting [2]) came to 0%; with Hyperlipidemic Hamster (setting [3]) it was 12%.

On to `COc1ccc(N2C(=O)[C@H](CCCc3ccccc3)[C@@H]2c2ccc(C(F)(F)F)cc2)cc1` (relative stereo) [Example 1BH], for which, at ACAT (setting [1]), the inhibition at 10 µM turned out to be 50%. Further, the change in vivo at 50 mg/kg with Hyperlipidemic Hamster (setting [2]) and in the assay on Hyperlipidemic Hamster (setting [3]) was 0% throughout.

As for `COc1ccc(N2C(=O)[C@H](CCCc3ccccc3)[C@@H]2c2cccs2)cc1` (relative stereo) [Example 1BI], the inhibition at 10 µM on ACAT (setting [1]) stood at 59%. For the same molecule, the results for the change in vivo at 50 mg/kg with Hyperlipidemic Hamster (setting [2]) and in the assay on Hyperlipidemic Hamster (setting [3]) were -45% and -17%, respectively.

Turning to `COc1ccc(N2C(=O)[C@H](CCCc3ccccc3)[C@@H]2c2ccsc2)cc1` (relative stereo) [Example 1BJ], the inhibition at 10 µM on ACAT (setting [1]) came out at 56%. Also, the change in vivo at 50 mg/kg in the assay with Hyperlipidemic Hamster (setting [2]) and with Hyperlipidemic Hamster (setting [3]) was 0% each time.

On to `COc1ccc(N2C(=O)[C@H](CCCc3ccccc3)[C@@H]2c2cccc(OC(F)(F)F)c2)cc1` (relative stereo) [Example 1BK], for which the inhibition at 10 µM at ACAT (setting [1]) worked out at 55%. Also, the change in vivo at 50 mg/kg with Hyperlipidemic Hamster (setting [2]) and in the assay with Hyperlipidemic Hamster (setting [3]) was 0% each time.

Turning to `COc1ccc(N2C(=O)[C@@H](CCCc3ccccc3)[C@@H]2c2cccc(OC(F)(F)F)c2)cc1` (relative stereo) [Example 1BL], the inhibition at 10 µM at ACAT (setting [1]) turned out to be 42%. The values for the change in vivo at 50 mg/kg in the assay with Hyperlipidemic Hamster (setting [2]) and in the assay with Hyperlipidemic Hamster (setting [3]) were 0% and -10%, respectively.

As for `COc1ccc(N2C(=O)[C@H](CCCc3ccccc3)[C@@H]2c2ccc(C)cc2)cc1` (relative stereo) [Example 1BM], on ACAT (setting [1]), the inhibition at 10 µM is 38%. Also, the change in vivo at 50 mg/kg in the assay on Hyperlipidemic Hamster (setting [2]) was -21%; in the assay with Hyperlipidemic Hamster (setting [3]), 0%.

As to `COc1ccc(N2C(=O)[C@H](CCCc3ccccc3)[C@@H]2c2ccc(OCc3ccccc3)cc2)cc1` (relative stereo) [Example 1BN], the IC50 at ACAT (setting [4]) came out at 7 µM. Further, the change in vivo at 50 mg/kg with Hyperlipidemic Hamster (setting [2]) is 0%; in the assay on Hyperlipidemic Hamster (setting [3]), -16%.

In the case of `CCOc1ccc([C@H]2[C@@H](CCCc3ccccc3)C(=O)N2c2ccc(OC)cc2)cc1` (relative stereo) [Example 1BO], at ACAT (setting [1]), the inhibition at 10 µM stood at 79%. The IC50 at ACAT (setting [4]) is 5.4 µM. Also, the change in vivo at 50 mg/kg was -93% in the assay on Hyperlipidemic Hamster (setting [2]) and -48% with Hyperlipidemic Hamster (setting [3]).

Consider `COc1ccc(N2C(=O)[C@@H](CCCc3ccccc3)[C@@H]2c2ccsc2)cc1` (relative stereo) [Example 1BP], for which, on ACAT (setting [1]), the inhibition at 10 µM amounted to 58%. The change in vivo at 50 mg/kg in the assay with Hyperlipidemic Hamster (setting [2]) is 0%; in the assay with Hyperlipidemic Hamster (setting [3]), -9%.

On to `COc1ccc(N2C(=O)[C@@H](CCc3ccccc3)[C@@H]2c2ccccc2)cc1` (relative stereo) [Example 1E], for which the inhibition at 10 µM on ACAT (setting [1]) came out at 3%.

Consider `CC[C@@]1(CCCc2ccccc2)C(=O)N(c2c(OC)cc(OC)cc2OC)[C@H]1C=Cc1ccccc1` (relative stereo) [Example 1I], for which, at ACAT (setting [1]), the inhibition at 10 µM was 81%. In addition, at ACAT (setting [4]), the IC50 came out at 4.5 µM.

For the molecule `CC[C@]1(CCCc2ccccc2)C(=O)N(c2c(OC)cc(OC)cc2OC)[C@H]1C=Cc1ccccc1` (relative stereo) [Example 1J], the inhibition at 10 µM on ACAT (setting [1]) is 86%. Besides, the IC50 on ACAT (setting [4]) amounted to 3 µM.

On to `COc1ccc(N2C(=O)[C@H](c3ccccc3)[C@H]2c2ccccc2)cc1` (relative stereo) [Example 1V], for which the inhibition at 10 µM at ACAT (setting [1]) came out at 64%.

On to `COc1ccc(N2C(=O)[C@H](C(C)C)[C@@H]2c2ccccc2)cc1` (relative stereo) [Example 1W], for which the inhibition at 10 µM at ACAT (setting [1]) turned out to be 9%.

In the case of `COc1ccc(N2C(=O)[C@](Cc3ccccc3)(c3ccccc3)[C@@H]2c2ccccc2)cc1` (relative stereo) [Example 1Y], at ACAT (setting [1]), the inhibition at 10 µM came out at 50%.

`CCCCCCCCCC[C@@]1(CCCc2ccccc2)C(=O)N(c2ccc(OC)cc2)[C@@H]1c1ccccc1` (relative stereo) [Example 3C]: the inhibition at 10 µM on ACAT (setting [1]) is -18%.

Take `COc1ccc(N2C(=O)[C@H](c3ccccc3)[C@@H]2c2ccccc2)cc1` (relative stereo) [Example 4]: the inhibition at 10 µM at ACAT (setting [1]) turned out to be 16%.

`COc1ccc(N2C(=O)[C@@H](C(C)C)[C@@H]2c2ccccc2)cc1` (relative stereo) [Example 5A]: the inhibition at 10 µM on ACAT (setting [1]) was -70%.

Consider `CC[C@@H]1C(=O)N(c2ccc(OC)cc2)[C@@H]1c1ccc(N)cc1` (relative stereo) [Example 8], for which the inhibition at 10 µM on ACAT (setting [1]) is -12%.

With `CCCCCCCCCC[C@@]1(CC)C(=O)N(c2ccc(OC)cc2)[C@@H]1c1ccccc1` (stereo in doubt) [Example 3T], at ACAT (setting [1]), the inhibition at 10 µM was -9%.

The record behind these values is US5688787A, “Substituted β-lactam compounds useful as hypochlesterolemic agents and processes for the preparation thereof” (priority 1996, dated 1997).
